Reference: ChEMBL document CHEMBL4138123, “Design, synthesis and biological evaluation of novel pyrazolochalcones as potential modulators of PI3K/Akt/mTOR pathway and inducers of apoptosis in breast cancer cells” (Eur J Med Chem, 2017)

How the values were obtained:
Assay type in all cases: functional
[1] = tested on: MDA-MB-468; experiment: Cytotoxicity against human MDA-MB-468 cells assessed as cell growth at 1 uM after 48 hrs by sulforhodamine B assay relative to control; conditions: MDA-MB-468, 48 h, read-out: Activity
[2] = tested on: SK-OV-3; experiment: Cytotoxicity against human SKOV3 cells assessed as cell growth at 0.1 uM after 48 hrs by sulforhodamine B assay relative to control; conditions: SK-OV-3, 48 h, read-out: Activity
[3] = tested on: HOP-62; experiment: Cytotoxicity against human HOP62 cells assessed as cell growth at 0.1 uM after 48 hrs by sulforhodamine B assay relative to control; conditions: HOP-62, 48 h, read-out: Activity
[4] = tested on: NCI-H322M; experiment: Cytotoxicity against human NCI-H322M cells assessed as cell growth at 1 uM after 48 hrs by sulforhodamine B assay relative to control; conditions: read-out: Activity
[5] = tested on: DU-145; experiment: Cytotoxicity against human DU145 cells assessed as cell growth at 1 uM after 48 hrs by sulforhodamine B assay relative to control; conditions: DU-145, 48 h, read-out: Activity
[6] = tested on: MDA-MB-231; experiment: Cytotoxicity against human MDA-MB-231 cells assessed as growth inhibition after 48 hrs by sulforhodamine B assay; conditions: MDA-MB-231, 48 h
[7] = tested on: HCT-15; experiment: Cytotoxicity against human HCT15 cells assessed as cell growth at 100 uM after 48 hrs by sulforhodamine B assay relative to control; conditions: HCT-15, 48 h, read-out: Activity
[8] = tested on: RPMI-8226; experiment: Cytotoxicity against human RPMI8226 cells assessed as cell growth at 0.1 uM after 48 hrs by sulforhodamine B assay relative to control; conditions: RPMI-8226, 48 h, read-out: Activity
[9] = tested on: CCRF-CEM; experiment: Cytotoxicity against human CCRF-CEM cells assessed as cell growth at 0.01 uM after 48 hrs by sulforhodamine B assay relative to control; conditions: read-out: Activity
[10] = tested on: MDA-MB-468; experiment: Cytotoxicity against human MDA-MB-468 cells assessed as cell growth at 0.01 uM after 48 hrs by sulforhodamine B assay relative to control; conditions: MDA-MB-468, 48 h, read-out: Activity
[11] = tested on: SF-539; experiment: Cytotoxicity against human SF539 cells assessed as cell growth at 0.01 uM after 48 hrs by sulforhodamine B assay relative to control; conditions: SF-539, 48 h, read-out: Activity
[12] = tested on: RPMI-8226; experiment: Cytotoxicity against human RPMI8226 cells assessed as cell growth at 0.01 uM after 48 hrs by sulforhodamine B assay relative to control; conditions: RPMI-8226, 48 h, read-out: Activity
[13] = tested on: OVCAR-3; experiment: Cytotoxicity against human OVCAR3 cells assessed as cell growth at 10 uM after 48 hrs by sulforhodamine B assay relative to control; conditions: OVCAR-3, 48 h, read-out: Activity
[14] = tested on: TK-10; experiment: Cytotoxicity against human TK10 cells assessed as cell growth at 100 uM after 48 hrs by sulforhodamine B assay relative to control; conditions: TK-10, 48 h, read-out: Activity
[15] = tested on: SK-MEL-5; experiment: Cytotoxicity against human SK-MEL-5 cells assessed as cell growth at 0.01 uM after 48 hrs by sulforhodamine B assay relative to control; conditions: SK-MEL-5, 48 h, read-out: Activity
[16] = tested on: NCI-H226; experiment: Cytotoxicity against human NCI-H226 cells assessed as cell growth at 10 uM after 48 hrs by sulforhodamine B assay relative to control; conditions: NCI-H226, 48 h, read-out: Activity
[17] = tested on: MDA-MB-231; experiment: Cytotoxicity against human MDA-MB-231 cells assessed as cell growth at 0.01 uM after 48 hrs by sulforhodamine B assay relative to control; conditions: MDA-MB-231, 48 h, read-out: Activity
[18] = tested on: UACC-62; experiment: Cytotoxicity against human UACC62 cells assessed as cell growth at 100 uM after 48 hrs by sulforhodamine B assay relative to control; conditions: UACC-62, 48 h, read-out: Activity
[19] = tested on: U-251; experiment: Cytotoxicity against human U251 cells assessed as cell growth at 0.01 uM after 48 hrs by sulforhodamine B assay relative to control; conditions: U-251, 48 h, read-out: Activity
[20] = tested on: SR; experiment: Cytotoxicity against human SR cells assessed as cell growth at 1 uM after 48 hrs by sulforhodamine B assay relative to control; conditions: read-out: Activity
[21] = tested on: COLO 205; experiment: Cytotoxicity against human COLO205 cells assessed as cell growth at 1 uM after 48 hrs by sulforhodamine B assay relative to control; conditions: COLO 205, 48 h, read-out: Activity
[22] = tested on: MOLT-4; experiment: Cytotoxicity against human MOLT4 cells assessed as cell growth at 1 uM after 48 hrs by sulforhodamine B assay relative to control; conditions: MOLT-4, 48 h, read-out: Activity
[23] = tested on: UACC-257; experiment: Cytotoxicity against human UACC257 cells assessed as cell growth at 1 uM after 48 hrs by sulforhodamine B assay relative to control; conditions: UACC-257, 48 h, read-out: Activity
[24] = tested on: NCI-H23; experiment: Cytotoxicity against human NCI-H23 cells assessed as cell growth at 1 uM after 48 hrs by sulforhodamine B assay relative to control; conditions: NCI-H23, 48 h, read-out: Activity
[25] = tested on: A549; experiment: Cytotoxicity against human A549/ATCC cells assessed as growth inhibition after 48 hrs by sulforhodamine B assay; conditions: A549, 48 h
[26] = tested on: MCF7; experiment: Cytotoxicity against human MCF7 cells assessed as cell growth at 10 uM after 48 hrs by sulforhodamine B assay relative to control; conditions: MCF7, 48 h, read-out: Activity
[27] = tested on: HCC 2998; experiment: Cytotoxicity against human HCC2998 cells assessed as cell growth at 0.1 uM after 48 hrs by sulforhodamine B assay relative to control; conditions: HCC 2998, 48 h, read-out: Activity
[28] = tested on: SF-539; experiment: Cytotoxicity against human SF539 cells assessed as cell growth at 10 uM after 48 hrs by sulforhodamine B assay relative to control; conditions: SF-539, 48 h, read-out: Activity
[29] = tested on: SF-539; experiment: Cytotoxicity against human SF539 cells assessed as cell growth at 100 uM after 48 hrs by sulforhodamine B assay relative to control; conditions: SF-539, 48 h, read-out: Activity
[30] = tested on: UACC-62; experiment: Cytotoxicity against human UACC62 cells assessed as cell growth at 0.1 uM after 48 hrs by sulforhodamine B assay relative to control; conditions: UACC-62, 48 h, read-out: Activity
[31] = tested on: SF-268; experiment: Cytotoxicity against human SF268 cells assessed as cell growth at 0.1 uM after 48 hrs by sulforhodamine B assay relative to control; conditions: SF-268, 48 h, read-out: Activity
[32] = tested on: SK-MEL-5; experiment: Cytotoxicity against human SK-MEL-5 cells assessed as cell growth at 100 uM after 48 hrs by sulforhodamine B assay relative to control; conditions: SK-MEL-5, 48 h, read-out: Activity
[33] = tested on: RXF 393; experiment: Cytotoxicity against human RXF393 cells assessed as cell growth at 0.01 uM after 48 hrs by sulforhodamine B assay relative to control; conditions: RXF 393, 48 h, read-out: Activity
[34] = tested on: MDA-MB-231; experiment: Cytotoxicity against human MDA-MB-231 cells assessed as cell growth at 1 uM after 48 hrs by sulforhodamine B assay relative to control; conditions: MDA-MB-231, 48 h, read-out: Activity
[35] = tested on: IGROV-1; experiment: Cytotoxicity against human IGROV1 cells assessed as cell growth at 1 uM after 48 hrs by sulforhodamine B assay relative to control; conditions: IGROV-1, 48 h, read-out: Activity

COc1ccc(C(=O)/C=C/c2cc(-c3ccc(OC)c(OC)c3)n[nH]2)cc1OC
growth at 1 µM [1]: 55% | growth at 0.1 µM [2]: 97% | growth at 0.1 µM [3]: 84% | growth at 1 µM [4]: 94% | growth at 1 µM [5]: 73% | GI50 [6]: 1.88 µM | TGI [6]: 6.38 µM | growth at 100 µM [7]: -10% | growth at 0.1 µM [8]: 91% | growth at 0.01 µM [9]: 99% | growth at 0.01 µM [10]: 87% | growth at 0.01 µM [11]: 89% | growth at 0.01 µM [12]: 98% | growth at 10 µM [13]: -43% | growth at 100 µM [14]: -12% | growth at 0.01 µM [15]: 96% | growth at 10 µM [16]: -46% | growth at 0.01 µM [17]: 108% | growth at 100 µM [18]: -49% | growth at 0.01 µM [19]: 95% | growth at 1 µM [20]: 5% | growth at 1 µM [21]: 82% | growth at 1 µM [22]: 73% | growth at 1 µM [23]: 96% | growth at 1 µM [24]: 94% | GI50 [25]: 2.25 µM | TGI [25]: 10.2 µM | growth at 10 µM [26]: -5% | growth at 0.1 µM [27]: 101% | growth at 10 µM [28]: -51% | growth at 100 µM [29]: -83% | growth at 0.1 µM [30]: 96% | growth at 0.1 µM [31]: 95% | growth at 100 µM [32]: -96% | growth at 0.01 µM [33]: 94% | growth at 1 µM [34]: 76% | growth at 1 µM [35]: 94%

COc1ccc(C(=O)/C=C/c2cc(-c3ccc4c(c3)OCO4)n[nH]2)cc1OC
growth at 1 µM [1]: 85% | growth at 0.1 µM [2]: 99% | growth at 0.1 µM [3]: 99% | growth at 1 µM [4]: 92% | growth at 1 µM [5]: 88% | GI50 [6]: 2.44 µM | LC50 [6]: 31.7 µM | TGI [6]: 7.39 µM | growth at 100 µM [7]: 2% | growth at 0.1 µM [8]: 97% | growth at 0.01 µM [9]: 99% | growth at 0.01 µM [10]: 92% | growth at 0.01 µM [11]: 98% | growth at 0.01 µM [12]: 99% | growth at 10 µM [13]: -47% | growth at 100 µM [14]: -58% | growth at 0.01 µM [15]: 96% | growth at 10 µM [16]: 1% | growth at 0.01 µM [17]: 102% | growth at 100 µM [18]: -94% | growth at 0.01 µM [19]: 90% | growth at 1 µM [20]: 57% | growth at 1 µM [21]: 101% | growth at 1 µM [22]: 96% | growth at 1 µM [23]: 93% | growth at 1 µM [24]: 85% | LC50 (concentration giving 50% net cell kill) [25]: > 100 µM | TGI [25]: 15.8 µM | growth at 10 µM [26]: 14% | growth at 0.1 µM [27]: 97% | growth at 10 µM [28]: -47% | growth at 100 µM [29]: -83% | growth at 0.1 µM [30]: 100% | growth at 0.1 µM [31]: 94% | growth at 100 µM [32]: -95% | growth at 0.01 µM [33]: 98% | growth at 1 µM [34]: 90% | growth at 1 µM [35]: 93%

COc1cc(C(=O)/C=C/c2cc(-c3cc(OC)c(OC)c(OC)c3)n[nH]2)cc(OC)c1OC
growth at 1 µM [1]: 59% | growth at 0.1 µM [2]: 95% | growth at 0.1 µM [3]: 94% | growth at 1 µM [4]: 89% | LC50 [6]: 9.51 µM | TGI [6]: 3.8 µM | growth at 100 µM [7]: -72% | growth at 0.1 µM [8]: 83% | growth at 0.01 µM [9]: 96% | growth at 0.01 µM [10]: 90% | growth at 0.01 µM [11]: 92% | growth at 0.01 µM [12]: 97% | growth at 10 µM [13]: -96% | growth at 100 µM [14]: -99% | growth at 0.01 µM [15]: 96% | growth at 10 µM [16]: -92% | growth at 0.01 µM [17]: 110% | growth at 100 µM [18]: -97% | growth at 0.01 µM [19]: 96% | growth at 1 µM [20]: 22% | growth at 1 µM [21]: 98% | growth at 1 µM [22]: 81% | growth at 1 µM [23]: 85% | growth at 1 µM [24]: 97% | LC50 (concentration giving 50% net cell kill) [25]: 59.2 µM | TGI [25]: 12.1 µM | growth at 10 µM [26]: -85% | growth at 0.1 µM [27]: 101% | growth at 10 µM [28]: -80% | growth at 100 µM [29]: -99% | growth at 0.1 µM [30]: 95% | growth at 0.1 µM [31]: 99% | growth at 100 µM [32]: -98% | growth at 0.01 µM [33]: 93% | growth at 1 µM [34]: 73% | growth at 1 µM [35]: 99%
